How the values were obtained:
Format in all cases: cell-based, human
MCF7 cells [1] = assay: Tumorsphere formation assay; settings: MCF7, cultured 15 days, compared to DMSO, FIG. 8
Method: A tumorsphere formation assay was performed in order to determine whether the selected MKI-1 can effectively reduce the formation of tumorsphere in cancer cells, Breast cancer cells MCF7 (2500-10000 cells) was suspended in serum-free DMEM/F12 (weIGENE) containing 1% penicillin, B-27 (1:50; invitrogen), 20 ng/mL epidermal cell growth factor (R&D Systems) and 20 ng/mL fibroblast growth factor (R&D Systems) and cultured on plates with low adhesion rate. After 24 hours, the cells were treated with MASTL kinase inhibitors (AT13148, MKI-1 and GKI-1), respectively, and cultured for 15 days, and then the diameter of the tumorsphere was measured and quantified, which was shown in FIG. 8.

MCF7 cells [2] = assay: 3D culture spheroid formation; settings: MCF7 3D culture, AT13148 2 μM, GKI-1 10 μM, MKI-1 10 μM, FIG. 9
Method: 3D culture was performed according to the protocol of the manufacturing company TheWell Bioscience. It was inoculated into 24-wells containing a DMEM mixture containing 10,000 MCF7 cells in an MCF7 cell:hydrogel solution in a ratio of 1:3 (v/v) and VitroGel™ 3D-RGD diluted with 0.1% PBS in a ratio of 1:3 (v/v) of a hydrogel:diH2O. Thereafter, incubation was performed at 37° C. for 15 minutes to stabilize the VitroGel 3D-RGD hydrogel. To cover the hydrogel, the same volume of DMEM as the hydrogel was added, and the next day, the hydrogel was treated with a DMSO base drug containing DMSO, AT13148 (2 μM), GKI-1 (10 μM) and MKI-1 (10 μM). The medium was exchanged every 2 days for 14 to 20 days.

MCF7 cells [3] = assay: Colony formation analysis; settings: MCF7, cultured 15 days, compared to DMSO, FIG. 7
Method: Colony formation analysis was performed to confirm whether the selected MKI-1 can effectively kill cancer cells. First, breast cancer cells MCF7 (500-1000 cells) were cultured in a 60 mm culture plate, and after 24 hours, it was treated with MASTL kinase inhibitors (AT13148, MKI-1 and GKI-1), respectively and cultured for 15 days. Cells were fixed and stained with […] to which methanol was added to quantify the number of colonies, which was shown in FIG. 7.

AKT = assay: Western blotting of AKT and GSK-3 phosphorylation in MCF7 cells; settings: western blot, FIG. 5
Method: 20 μg of protein was separated by SDS-PAGE electrophoresis and transferred to a PVDF membrane, and the following specific antibodies were used: rabbit polyclonal antibody MASTL (Abgent); phospho-ENSA (Ser67)/ARPP19 (Ser62) (#5240), ENSA (#11915S), cleaved PARP (Asp214) (#9541), AKT (#9272), phospho-AKT (ser473) (#9271), phospho-GSK-3α/β (Ser21/9) (#9331), phospho-p70S6K (The 288) (#9205) and phospho-Chk2 (Thr68) (#2661; Cell Signaling Technology, MA); p70S6K (sc-230; Santa Cruz Biotechnology, CA, USA), phospho-H3 (S10) (06-570, Merck, NJ); mouse monoclonal antibody caspase-2 (#2224S). In addition, mouse […] antibody β-actin (C4; Santa Cruz Biotechnology, CA, USA) was used as a loading control, it was washed with 1×PBS/0.1% Tween 20, and the binding protein was detected using HRP-binding secondary antibody and improved chemiluminescence detection system. The remaining conditions of Western blotting were the same as in Example 3, and the image of the band was obtained by Amersham Imager 600 system (GE Healthcare Life Science) or X-Ray film (AG, HealthCare, SC, USA) and it was shown in FIG. 5.

BT549 cells = assay: WST-8 cell viability assay, breast cancer cell line BT549; settings: 3.70, 11.11, 33.33 and 100 μM, FIG. 6
Method: (§1) In addition, the cell line in this experiment was distributed from ATCC (American Type Culture Collection; Manassas, VA). Human-derived tumor cell lines, breast cancer cell lines MCF7 and T47D was cultured in DMEM medium containing 10% fetal bovine serum (FBS; HyClone, South Logan, UT) and 1% penicillin/streptomycin (Corning, NY, USA) at 37° C. and 5% CO2, and the BT549 breast cancer cell line was cultured in RPMI 1640 (Welgene, Daegu, Korea) as a medium used under the same conditions. Human-derived normal cell line MCF10A was cultured in DMEM/F12 (Invitrogen) medium containing 5% horse serum (Invitrogen), 1% penicillin/streptomycin, 20 ng/ml EGF (Peprotech, London, UK), […] (Sigma-Aldrich, MO, USA), 100 ng/ml cholera toxin (Cholera Toxin, Sigma-Aldrich) and 10 μg Insulin (Sigma-Aldrich) at 37° C. and 5% CO2.
(§2) In order to confirm whether the selected MKI-1 can kill only cancer cells, an experiment was performed by treating with MKI-1 and measuring whether the cell viability of breast cancer cell lines and normal cell lines was changed. WST-8 analysis (Cyto X™ cell viability assay kit, LPS solution, Daejeon, Korea) was performed according to the manufacturer's protocol. Cancer cells MCF7 and BT549 and normal cell line MCF10A cells were inoculated into a 96-well plate, cultured for 24 hours, and then treated with MASTL kinase inhibitors at various concentrations (3.70, 11.11, 33.33 and 100 μM). Thereafter, the absorbance was measured at 450 nm using a Versamax micro plate reader (Molecular Devices, CA, USA), and the results were shown in FIG. 6.

MCF10A cells = assay: WST-8 cell viability assay, normal cell line MCF10A; settings: 3.70, 11.11, 33.33 and 100 μM, FIG. 6
Method: as §1
(§3) Briefly, MCF7 and MCF10A cells were seeded into 96-well plates, incubated for 24 hours, and then was treated with 42 inhibitor candidates. Among the compounds, the multi-AGC kinase inhibitor AT13148 was used as a positive control. Thereafter, the absorbance was measured at 450 nm using a Versamax microplate reader (Molecular Devices, CA, USA), and the results of the experiment were shown in FIG. 1A.
as §2

MCF7 cells [4] = assay: WST-8 cell viability assay, breast cancer cell line MCF7; settings: 3.70, 11.11, 33.33 and 100 μM, FIG. 6
Method: as §1, §3, §2

In the case of NC[C@@](O)(c1ccc(Cl)cc1)c1ccc(-c2cn[nH]c2)cc1 [AT13148, reference compound], the tumorsphere diameter (MCF7 cells [1]) was “significantly decreased”, the “size of cancer cell spheroid” value (MCF7 cells [2]) was “significantly reduced” and the “number of cancer cell colonies” value (MCF7 cells [3]) was “significantly reduced”. For the same compound, the “activation of AKT / phosphorylated GSK-3” value (AKT) was “strongly inhibited the activation of AKT”, the “cell viability, BT549” value (BT549 cells) was “drastically reduced cell viability” and the “cell viability, normal cell line MCF10A” value (MCF10A cells) was “drastically reduced cell viability”. For the same compound, the “cell viability, MCF7” value (MCF7 cells [4]) was “drastically reduced cell viability”.

Reference: patent US12029730B2, “Pharmaceutical composition for preventing or treating cancer, containing N-1H-benzimidazol-2-yl-3-(1H-pyrrole-1-yl)benzamide as active ingredient” (KOREA INSTITUTE OF RADIOLOGICAL & MEDICAL SCIENCES, priority 2018, dated 2024)
